Laboratory results from PMC7586935 (Journal of Clinical Pharmacology, 2020).
Where a name gives a salt, the structure may show the parent alone. Read-outs that look alike come from different tables or passages of the source.

Key:
[1] = test system: QTcF interval of healthy volunteers; assay: Time-matched analysis of placebo-adjusted change from baseline QTcF; format: in vivo, human
CYP3A4 = conditions: cited from earlier work
[2] = Plasma pharmacokinetics after single oral dose; format: in vivo; conditions: human; for AUC / Tmax: oral; for Cmax: po
healthy volunteers [3] = assay: Safety assessment: treatment-emergent adverse events; format: in vivo, human
healthy volunteers [4] = assay: ECG morphological analyses; format: in vivo, human
[5] = mean ± SE, cited from earlier work
[6] = test system: human ether‐a‐go‐go–related gene potassium channels; conditions: in vitro, at clinically relevant plasma concentrations; cited from earlier work
[7] = 50 mg trazodone HCl with ritonavir (4 doses of 200 mg)
[8] = 50 mg trazodone HCl, control condition

Structure (SMILES): O=c1n(CCCN2CCN(c3cccc(Cl)c3)CC2)nc2ccccn12 [Trazodone, Trazodone hydrochloride]
- Placebo-adjusted change from baseline QTcF, estimate (90%CI) ([1]; trazodone 60 mg, N = 16, 16 h postdose): –1.4 (–5.6 to 2.7) ms
- Placebo-adjusted change from baseline QTcF, estimate (90%CI) ([1]; trazodone 60 mg, N = 16, 24 h postdose): 2.0 (–3.0 to 6.9) ms
- Placebo-adjusted change from baseline QTcF, estimate (90%CI) ([1]; trazodone 60 mg, N = 16, […] postdose): 16.9 ms
- Increase in the QTcF interval (time-matched analysis) ([1]; trazodone 60 mg, between 30 minutes and […] postdose): > 10 ms
- Placebo-adjusted change from baseline QTcF, estimate (90%CI) ([1]; trazodone 140 mg, N = 18, 5 min postdose): 0.8 (–2.7 to 4.4) ms
- Placebo-adjusted change from baseline QTcF, estimate (90%CI) ([1]; trazodone 140 mg, N = 18, 10 min postdose): 0.5 (–3.0 to 4.0) ms
- Placebo-adjusted change from baseline QTcF, estimate (90%CI) ([1]; trazodone 140 mg, N = 18, 20 min postdose): 11.6 (7.8–15.5) ms
- Placebo-adjusted change from baseline QTcF, estimate (90%CI) ([1]; trazodone 140 mg, N = 18, 0.5 h postdose): 20.2 (16.4–23.9) ms
- Placebo-adjusted change from baseline QTcF, estimate (90%CI) ([1]; trazodone 140 mg, N = 18, 1 h postdose): 24.5 (20.3–28.7) ms
- Placebo-adjusted change from baseline QTcF, estimate (90%CI) ([1]; trazodone 140 mg, N = 18, 2 h postdose): 17.1 (13.4–20.8) ms
- Placebo-adjusted change from baseline QTcF, estimate (90%CI) ([1]; trazodone 140 mg, N = 18, 3 h postdose): 14.5 (7.6–21.5) ms
- Placebo-adjusted change from baseline QTcF, estimate (90%CI) ([1]; trazodone 140 mg, N = 18, 4 h postdose): 12.8 (8.5–17.1) ms
- Placebo-adjusted change from baseline QTcF, estimate (90%CI) ([1]; trazodone 140 mg, N = 18, 6 h postdose): 6.7 (2.3–11.2) ms
- Placebo-adjusted change from baseline QTcF, estimate (90%CI) ([1]; trazodone 140 mg, N = 18, 8 h postdose): 5.8 (0.9–10.7) ms
- Placebo-adjusted change from baseline QTcF, estimate (90%CI) ([1]; trazodone 140 mg, N = 18, 12 h postdose): 7.9 (4.3–11.6) ms
- Placebo-adjusted change from baseline QTcF, estimate (90%CI) ([1]; trazodone 140 mg, N = 18, 16 h postdose): –0.7 (–5.2 to 3.8) ms
- Placebo-adjusted change from baseline QTcF, estimate (90%CI) ([1]; trazodone 140 mg, N = 18, 24 h postdose): 1.7 (–1.4 to 4.8) ms
- Increase in the QTcF interval (time-matched analysis) ([1]; trazodone 140 mg, between 15 minutes and 4 hours postdose): > 10 ms
- Metabolic pathway (CYP3A4): primarily metabolized by CYP3A4
- AUC ([2]; 20 mg): 2150 ± 909 ng·h/mL
- Tmax ([2]; 20 mg): 30 min
- AUC ([2]; 60 mg): 6240 ± 2030 ng·h/mL
- Tmax ([2]; 60 mg): 30 min
- AUC ([2]; 140 mg): 12800 ± 4910 ng·h/mL
- Tmax ([2]; 140 mg): 18 min
- Cmax ([2]; 20 mg): 413 ± 79.1 ng/mL
- Cmax ([2]; 60 mg): 1270 ± 598 ng/mL
- Cmax ([2]; 140 mg): 2080 ± 600 ng/mL
- Dizziness, frequency of subjects (healthy volunteers [3]; trazodone 20 mg): 0%
- Somnolence, frequency of subjects (healthy volunteers [3]; trazodone 20 mg): 44.4%
- Dizziness, frequency of subjects (healthy volunteers [3]; trazodone 60 mg): 5.6%
- Somnolence, frequency of subjects (healthy volunteers [3]; trazodone 60 mg): 50.0%
- Headache, frequency of subjects (healthy volunteers [3]; trazodone 140 mg): 10%
- Somnolence, frequency of subjects (healthy volunteers [3]; trazodone 140 mg): 85.0%
- Vomiting, frequency of subjects (healthy volunteers [3]; trazodone 140 mg): 10%
- Treatment-related ECG QT prolongation, frequency of subjects (healthy volunteers [3]; trazodone 140 mg, 1 subject): 5%
- Treatment-related abdominal discomfort, frequency of subjects (healthy volunteers [3]; trazodone 140 mg, 1 subject): 5%
- Treatment-related hypertension, frequency of subjects (healthy volunteers [3]; trazodone 140 mg, 1 subject): 5%
- Treatment-related hypotension, frequency of subjects (healthy volunteers [3]; trazodone 140 mg, 1 subject): 5%
- Treatment-related palpitations, frequency of subjects (healthy volunteers [3]; trazodone 140 mg, 1 subject): 5%
- New ST‐segment depression changes (healthy volunteers [4]; trazodone 20 mg, n = 18): 0 n (%)
- New ST‐segment elevation changes (healthy volunteers [4]; trazodone 20 mg, n = 18): 0 n (%)
- New second‐degree heart block (healthy volunteers [4]; trazodone 20 mg, n = 18): 0 n (%)
- New third‐degree heart block (healthy volunteers [4]; trazodone 20 mg, n = 18): 0 n (%)
- New ST‐segment depression changes (healthy volunteers [4]; trazodone 60 mg, n = 18): 1 (6) n (%)
- New ST‐segment elevation changes (healthy volunteers [4]; trazodone 60 mg, n = 18): 0 n (%)
- New second‐degree heart block (healthy volunteers [4]; trazodone 60 mg, n = 18): 0 n (%)
- New third‐degree heart block (healthy volunteers [4]; trazodone 60 mg, n = 18): 0 n (%)
- New ST‐segment depression changes (healthy volunteers [4]; trazodone 140 mg, n = 20): 0 n (%)
- New ST‐segment elevation changes (healthy volunteers [4]; trazodone 140 mg, n = 20): 0 n (%)
- New second‐degree heart block (healthy volunteers [4]; trazodone 140 mg, n = 20): 0 n (%)
- New third‐degree heart block (healthy volunteers [4]; trazodone 140 mg, n = 20): 0 n (%)
- Elimination half-life [5, 7]: 894 ± 234 min
- Peak plasma concentrations [5, 7]: 1125 ± 111 ng/mL
- Elimination half-life [5, 8]: 402 ± 42 min
- Peak plasma concentrations [5, 8]: 842 ± 64 ng/mL
- Inhibition of hERG potassium channels [6]: potent dose‐dependent inhibition
